Source: ChEMBL document CHEMBL1201862, “PubChem BioAssay data set” (2004)
Activity calls are given as the source filed them.

Columns and labels:
cells [1] = type: functional, cell-based
Streptococcus = assay: Group A Streptococcus viability loss, dose response, counter-screen for streptokinase expression inhibitor project, luminescence, BacTiterGlo (AID 1915); type: functional, organism-based;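 further: potency for reduction of bacterial viability or growth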
INS1 = assay: beta cell apoptosis inhibitors, cytokine rescue, dose response, luminescence, retest (AID 449756); type: functional, cell-based; details: Rattus norvegicus;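 further: cell death triggered by IL-1 beta plus TNF-alpha plus IFN-gamma mixture; protective hits raise ATP signal compared with cytokine alone wells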
[2] = tested on: Streptococcus sp. 'group A'; assay: growth inhibition of control SK(-) GAS strain, dose response, counter-screen for streptokinase expression inhibitor project, luminescence, kanamycin, BacTiterGlo, confirmation (AID 1900); type: functional, organism-based
cells [3] = type: functional, cell-based; remark: listed apart in the source
[4] = biological target: T1, Ubiquitin-conjugating enzyme E2 N (Homo sapiens, UniProt P61088); type: functional;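 further: Dose-response confirmation in a TR-FRET assay detecting UBC13-driven polyubiquitin chain formation, inhibition measured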
T1 sequence (P61088 whole entry): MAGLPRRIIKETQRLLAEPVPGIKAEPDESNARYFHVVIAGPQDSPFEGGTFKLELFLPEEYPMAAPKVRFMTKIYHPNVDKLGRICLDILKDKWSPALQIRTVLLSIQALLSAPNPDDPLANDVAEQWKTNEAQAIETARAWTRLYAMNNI

P388/ADR = assay: cells; type: functional; details: Mus musculus
P388 = assay: cells; type: functional; details: Mus musculus
SN12K1 = assay: cells; type: functional; details: Homo sapiens
[5] = biological target: T2, Calpain-2 catalytic subunit (Sus scrofa, UniProt P43367); assay: pig calpain II inhibitor potency, dose response, biochemical, fluorogenic peptide substrate (AID 1420); type: functional
T2 sequence (P43367 whole entry): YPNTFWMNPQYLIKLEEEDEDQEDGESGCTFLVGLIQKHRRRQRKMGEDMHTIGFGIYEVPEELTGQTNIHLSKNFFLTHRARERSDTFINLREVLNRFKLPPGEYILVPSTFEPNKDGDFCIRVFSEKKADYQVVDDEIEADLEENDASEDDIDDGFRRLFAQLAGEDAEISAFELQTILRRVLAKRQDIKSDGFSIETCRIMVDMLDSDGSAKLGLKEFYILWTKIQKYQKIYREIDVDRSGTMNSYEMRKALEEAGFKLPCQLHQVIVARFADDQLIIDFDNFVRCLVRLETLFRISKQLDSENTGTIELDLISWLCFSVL

[6] = Luminescence Cell-Based Dose Retest to Confirm Inhibitors of Cancer Stem Cells. [Related pubchem assays (depositor defined):AID2717, AID2721]; type: functional; details: Homo sapiens
[7] = biological target: Induced myeloid leukemia cell differentiation protein Mcl-1 (Homo sapiens, UniProt Q07820); type: functional
Sequence of Induced myeloid leukemia cell differentiation protein Mcl-1 (Q07820 whole entry): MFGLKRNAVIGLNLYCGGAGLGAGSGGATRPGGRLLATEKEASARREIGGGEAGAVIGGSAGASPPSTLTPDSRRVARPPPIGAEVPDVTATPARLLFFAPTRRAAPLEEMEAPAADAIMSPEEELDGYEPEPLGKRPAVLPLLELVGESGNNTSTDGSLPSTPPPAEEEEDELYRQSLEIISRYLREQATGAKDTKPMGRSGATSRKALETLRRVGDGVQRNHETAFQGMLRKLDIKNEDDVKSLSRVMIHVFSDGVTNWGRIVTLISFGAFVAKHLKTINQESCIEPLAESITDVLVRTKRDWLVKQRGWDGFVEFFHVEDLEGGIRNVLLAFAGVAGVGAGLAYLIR

[8] = biological target: T3, Polyadenylate-binding protein 1 (Homo sapiens, UniProt P11940); assay: PABP1 MLLE–PAM2 binding inhibitor potency, dose response, biochemical, fluorescence polarization, FITC-PAM2 peptide (AID 602259); type: functional; details: read-out: IC50_Mean
T3 sequence (P11940 whole entry): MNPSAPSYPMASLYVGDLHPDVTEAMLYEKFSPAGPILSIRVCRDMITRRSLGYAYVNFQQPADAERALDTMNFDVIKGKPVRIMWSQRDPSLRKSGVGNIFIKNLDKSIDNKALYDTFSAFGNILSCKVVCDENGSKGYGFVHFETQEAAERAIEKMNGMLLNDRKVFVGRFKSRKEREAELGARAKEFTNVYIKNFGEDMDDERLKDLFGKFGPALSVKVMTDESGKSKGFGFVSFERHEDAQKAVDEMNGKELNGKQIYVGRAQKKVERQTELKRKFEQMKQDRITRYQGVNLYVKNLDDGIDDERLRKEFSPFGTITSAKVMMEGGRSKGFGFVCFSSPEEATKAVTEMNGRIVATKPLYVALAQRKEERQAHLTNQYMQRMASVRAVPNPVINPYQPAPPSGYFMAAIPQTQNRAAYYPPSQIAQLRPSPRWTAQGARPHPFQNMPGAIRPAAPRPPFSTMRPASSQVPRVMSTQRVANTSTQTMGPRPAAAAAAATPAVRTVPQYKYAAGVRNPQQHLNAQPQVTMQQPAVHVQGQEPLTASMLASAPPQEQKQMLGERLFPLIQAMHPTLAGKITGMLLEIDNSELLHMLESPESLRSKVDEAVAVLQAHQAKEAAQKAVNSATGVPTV

[9] = biological target: T3, Polyadenylate-binding protein 1; assay: PABP1 MLLE–PAM2 interaction inhibitors, dose response, miRNA deadenylation inhibitor project, biochemical, fluorescence polarization, Cy5-PAM2 peptide, secondary (AID 602260); type: functional; details: read-out: IC50_Mean
[10] = biological target: T4, Heat shock factor protein 1 (Mus musculus, UniProt P38532); assay: HSF1 potentiators in luciferase reporter cells, confirmation, cell-based, NIH3T3, luminescence, dose retest (AID 435004); type: functional;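 further: stress induced by proteasome inhibitor MG132 added 30 min after compound; luciferase reporter driven by HSF1 response element in NIH3T3 cells; actives raise luminescence as potentiators of the MG132 stress response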
T4 sequence (P38532 whole entry): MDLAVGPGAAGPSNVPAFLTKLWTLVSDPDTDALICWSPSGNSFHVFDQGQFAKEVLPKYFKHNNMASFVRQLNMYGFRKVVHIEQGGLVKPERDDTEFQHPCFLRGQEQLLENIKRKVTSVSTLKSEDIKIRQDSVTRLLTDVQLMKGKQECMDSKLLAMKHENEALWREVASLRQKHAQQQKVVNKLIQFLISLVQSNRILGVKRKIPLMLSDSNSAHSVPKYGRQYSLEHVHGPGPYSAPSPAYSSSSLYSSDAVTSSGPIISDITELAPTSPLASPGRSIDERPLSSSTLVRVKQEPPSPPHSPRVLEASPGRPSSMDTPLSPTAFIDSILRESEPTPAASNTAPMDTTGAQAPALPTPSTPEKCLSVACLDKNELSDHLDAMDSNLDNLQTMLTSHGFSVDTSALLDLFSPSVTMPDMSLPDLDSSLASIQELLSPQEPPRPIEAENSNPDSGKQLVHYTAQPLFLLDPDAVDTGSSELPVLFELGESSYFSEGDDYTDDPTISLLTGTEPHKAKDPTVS

[11] = Luminescence Cell-Based Dose Response HTS to Identify Inhibitors of 5'UTR Stem-Loop Driven Prion Protein mRNA Translation in H4 Neuroglioblastoma Cells. [Related pubchem assays: 1827 (Project Summary), 1813 (Primary HTS)]; type: functional
[12] = inhibitors of SNCA 5'UTR-driven reporter translation, confirmation, H4 neuroglioma cells, luminescence (AID 1988); type: functional, cell-based
[13] = inhibitors of firefly luciferase expression or activity, dose response, H4 neuroglioma cells, luminescence (AID 1990); type: functional, cell-based
[14] = biological target: T5, Rac GTPase-activating protein 1 (Homo sapiens, UniProt Q9H0H5); assay: MgcRacGAP GTPase-activating activity inhibitors, confirmation, biochemical, ADP Hunter fluorescence, primary and confirmatory (AID 624330); type: functional
T5 sequence (Q9H0H5 whole entry): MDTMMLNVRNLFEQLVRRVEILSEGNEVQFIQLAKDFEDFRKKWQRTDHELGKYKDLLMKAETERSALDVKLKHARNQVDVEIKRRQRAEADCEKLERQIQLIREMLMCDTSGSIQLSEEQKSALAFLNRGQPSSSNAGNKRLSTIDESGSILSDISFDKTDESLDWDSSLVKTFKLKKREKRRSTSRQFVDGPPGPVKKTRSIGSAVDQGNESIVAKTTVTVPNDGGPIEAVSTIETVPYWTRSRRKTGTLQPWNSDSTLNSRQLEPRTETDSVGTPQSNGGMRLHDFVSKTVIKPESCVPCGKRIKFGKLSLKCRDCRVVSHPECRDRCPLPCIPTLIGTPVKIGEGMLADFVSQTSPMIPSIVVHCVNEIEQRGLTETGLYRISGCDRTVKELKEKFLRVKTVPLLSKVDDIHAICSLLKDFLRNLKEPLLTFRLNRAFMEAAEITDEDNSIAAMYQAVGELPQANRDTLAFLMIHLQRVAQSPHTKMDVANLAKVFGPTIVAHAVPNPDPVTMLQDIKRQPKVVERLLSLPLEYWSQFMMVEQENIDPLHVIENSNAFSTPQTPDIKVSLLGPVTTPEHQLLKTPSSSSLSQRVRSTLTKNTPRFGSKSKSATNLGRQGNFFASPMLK

[15] = C. albicans growth with fluconazole, confirmation, fluorescence, retest (AID 2467); type: functional, cell-based
[16] = NIH-3T3 fibroblast cytotoxicity, dose response, cytotoxicity control, cell-based, fluorescence, Alamar Blue, secondary assay (AID 2327); type: functional;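 further: NIH-3T3 mouse fibroblasts cultured with fluconazole at 8 µg/mL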

## O=C(N/N=C/c1ccccc1O)c1ccc2c(c1)OCO2
Cells [1]
  EC50: 101 µM (active)
Streptococcus
  EC50: 4.46 µM (active)
INS1
  AC50: 2.58 µM (active)
[2]
  EC50: 4.24 µM (active)
Cells [3]
  EC50: 12.6 µM (active)

## Cc1ccc(NC(=O)C[S+]([O-])CC(=O)NCCCc2ccccc2)cc1Cl (stereo not given)
[4]
  IC50: > 20 µM (inactive)

## ClCc1ccc2ccc3ccc(CCl)nc3c2n1
P388/ADR
  GI50: 0.883 µM (active)
P388
  GI50: 1.51 µM (inactive)
SN12K1
  GI50: 1.87 µM (inactive)

## CCCCC(=O)N1CCN(c2nc3ccc(F)cc3s2)CC1
Cells [1]
  EC50: > 350 µM (not active)
Cells [3]
  EC50: 4.69 µM (active)

## CC(C)C[C@@H]1CN=C(N)N1C[C@@H]1CCCN1C[C@H](C)N1C[C@@H](Cc2ccccc2)N(CCCC2CCCC2)C1=N
[4]
  IC50: > 20 µM (inactive)

## c1ccc(-c2nnc3sc(-c4cc5ccccc5o4)nn23)cc1
Cells [1]
  EC50: > 350 µM (not active)
Cells [3]
  EC50: > 350 µM (not active)

## Cc1ccc(C(=O)NC(=S)NCc2cccnc2)c(C)c1
[5]
  IC50: > 50 µM (not active)

## O=[N+]([O-])c1cccc(-c2nc3ccccc3s/c2=N/O)c1
[5]
  IC50: 22 µM (not active)

## CCCCCc1cc(=O)oc2c(C(CCN3CCCCC3)c3cc(OC)c(OC)c(OC)c3)c(OC)cc(OC)c12 (stereo not given)
[6]
  AC50: 6.58 µM (active)
[4]
  IC50: > 20 µM (inactive)

## CC1NC(=O)C(C)C(c2ccccc2)N(N=O)C1c1ccccc1 (stereo not given)
P388/ADR
  GI50: 0.933 µM (active)
P388
  GI50: 21 µM (inactive)
SN12K1
  GI50: > 100 µM (inactive)

## CC(C)(C)C1CCC(C(=O)OCC(=O)N2CCN(C(=O)c3ccco3)CC2)CC1 (stereo not given)
[5]
  IC50: 29.8 µM (not active)

## CC[C@@H](C)[C@@H]1CN([C@@H](CN2CCC[C@H]2CN2C(N)=NC[C@H]2CC(C)C)C(C)C)C(=N)N1CCCC1CCCC1
[4]
  IC50: > 20 µM (inactive)

## COc1cc(NS(=O)(=O)c2ccc(NC(=S)NC(=O)c3sc4cc(F)ccc4c3Cl)cc2)nc(OC)n1
[7]
  IC50: 4.37 µM (not active)
[8]
  IC50: > 66 µM (inactive)
[9]
  IC50: > 66 µM (inactive)

## Cc1cc(C(=O)NCCN(C)C)c2nc3ccccc3cc2c1
P388/ADR
  GI50: 0.341 µM (active)
P388
  GI50: 0.0418 µM (active)
SN12K1
  GI50: 0.519 µM (active)

## Cc1ccc(N2C(=O)N(CC(=O)Nc3cc(C)cc(C)c3)C(=O)C2C)cc1 (stereo not given)
[5]
  IC50: > 50 µM (not active)

## C=C1C(=O)OC2CC1CCC1(C)OC1CCC(C)=CCCC2(C)O (stereo not given)
P388/ADR
  GI50: 0.463 µM (active)
P388
  GI50: 1.08 µM (active)
SN12K1
  GI50: 4.35 µM (inactive)

## O=C(c1ccccc1)c1ccc2nc(-c3ccco3)c(-c3ccco3)nc2c1
[7]
  IC50: 6.46 µM (active)
[10]
  EC50: 32.3 µM (active)

## CC(O)CCC(=O)c1ccoc1 (stereo not given)
P388/ADR
  GI50: 3660 µM (inactive)
P388
  GI50: 4940 µM (inactive)
SN12K1
  GI50: 7230 µM (inactive)

## CCOc1ccc(NC(=O)CCCOc2cc(=O)n(C)c3ccccc23)cc1
[4]
  IC50: > 20 µM (inactive)

## CCCCSc1nc(C)cc(SCC(=O)N/N=C/c2cccc(OC)c2O)n1
[11]
  EC50: 9.62 µM (active)
Cells [1]
  EC50: 15 µM (active)
[10]
  EC50: > 260 µM (inactive)
Streptococcus
  EC50: 2.61 µM (active)
[12]
  EC50: 10.2 µM (active)
[2]
  EC50: 2.31 µM (active)
[6]
  AC50: 7.03 µM (active)
[13]
  EC50: 11.6 µM (active)
Cells [3]
  EC50: > 350 µM (not active)

## O=C1C=CC(=O)c2c(Cl)ccc(O)c21
P388/ADR
  GI50: 0.344 µM (active)
P388
  GI50: 0.499 µM (active)
SN12K1
  GI50: 25.6 µM (inactive)

## Cc1ccc(OCc2nnc(SCC(=O)c3cccc([N+](=O)[O-])c3)n2C)cc1
[5]
  IC50: 4.87 µM (not active)

## CC(=O)c1c(S)nc(-c2ccccc2)nc1N1CCCC1
[5]
  IC50: > 50 µM (not active)

## CCOC(=O)CSc1nc2ccccc2c(=O)n1NC(=O)c1ccccc1
[4]
  IC50: > 20 µM (inactive)

## CC1=C2C3OC(=O)C(C)C3CCC2(C)C=C/C1=N\c1ccccc1 (stereo not given)
P388/ADR
  GI50: > 100 µM (inactive)
P388
  GI50: > 100 µM (inactive)
SN12K1
  GI50: > 100 µM (inactive)

## COc1ccc(-n2ncc(S(=O)(=O)c3ccccc3)c2-c2ccc(Cl)cc2)cc1
[5]
  IC50: 3.23 µM (not active)

## COc1ccc2cc1Oc1ccc(cc1)C[C@H]1c3cc(c(OC)cc3CCN1C)Oc1c(OC)c(OC)cc3c1[C@H](C2)N(C)CC3 [FANCHININ]
P388/ADR
  GI50: 3.05 µM (inactive)
P388
  GI50: 1.77 µM (inactive)
SN12K1
  GI50: 7.06 µM (inactive)

## O=C(c1ccccc1)c1cn(CC(=O)N2CCCc3ccccc32)c2ccccc12
[5]
  IC50: < 0.4 µM (not active)

## C/C(=N\NC(=O)c1cccc(N/N=C(\C)c2cc(O)ccc2O)c1)c1cc(O)ccc1O
[14]
  IC50: 67.8 µM (active)
[7]
  IC50: 3.43 µM (active)
[10]
  EC50: > 260 µM (inactive)
[15]
  EC50: > 38 µM (not active)
[16]
  EC50: 10.8 µM (active)

## Cc1nc(=O)n2c(c1C(=O)Nc1ccc(Cl)cc1)NCC2
P388
  GI50: > 31.6 µM (inactive)

## NS(=O)(=O)c1ccc(CCNC(=O)c2cc(-c3ccco3)nc3ccccc23)cc1
[4]
  IC50: > 20 µM (inactive)

## Cc1[nH]n(-c2ccc(C(=O)O)cc2)c(=O)c1CCO
[5]
  IC50: > 50 µM (not active)
